Patent publication EP3381906A1, “COMPOUNDS FOR USE AS HEPARANASE INHIBITORS” (Leadiant Biosciences SA, priority 2017, dated 2018)

Legend:
[1] = test system: HT1080 (human fibrosarcoma); assay: Matrigel cell invasion assay; type: cell-based; conditions: HT-1080, HT1080, Conc. 2.5 µM
Experimental: Heparanase inhibitors were then evaluated for their activity on the invasive potential of HT1080 (human fibrosarcoma) human cell lines, using the Matrigel cell invasion assay which allows to assess the cell invasion ability of malignant and normal cells.
Invasion assay was performed using BioCoat cell culture inserts (BioCoat 8.0µm PET Membrane 24 Well Permeable Supports, Corning). Filters were coated with 100 µl of 300 µg/ml Matrigel dissolved in coating buffer (0.01M Tris pH 8.0, 0.7% NaCl) (Becton-Dickinson Sciences). DMEM (Dulbecco's Modified Eagle's Medium) containing 5% FBS was added to the lower chambers. Cells were pre-treated with heparanase inhibitors for 24 h, detached and added to the upper chambers in media containing the inhibitors. Cells were allowed to invade for 24 h at 37°C in a CO2 incubator and then unmigrated cells were removed from the upper chamber with a cotton swab. The invading cells were fixed, stained with 0.1% crystal violet for 10 min at room temperature, photographed and counted under inverted microscope.
Test compounds were analyzed at fixed concentration for several fields, in duplicates. Activity of test compounds was compared to the reference compound. Activity of most interesting compound was confirmed in a second cell invasion assay. Data were expressed as the percent invasion with respect to cell migration through uncoated insert membrane. (Table 5)

U87MG [2] = assay: Matrigel cell invasion assay; type: cell-based, human; conditions: Homo sapiens, U-87 MG, Conc. 2.5 µM
U2OS = assay: Matrigel cell invasion assay; type: cell-based, human; conditions: Homo sapiens, Conc. 2.5 µM
[3] = test system: HT1080 (human fibrosarcoma); assay: Cell adhesion assay on matrigel coated wells; type: cell-based; conditions: HT1080, Conc. 2.5 µM; percent of adhesion with respect to the control (100%)
Experimental: Cell surface, non-integrin molecules such as heparan sulfate proteoglycans (HSPGs) may be involved in the regulation of early adhesive stages of cell-ECM interactions. A cell adhesion assay has been employed to determine if the newly designed heparanase inhibitors were able to interfere with adhesion properties of cancer cells.
HT1080 (human fibrosarcoma) cells were treated for 18-20 h with test compounds in complete medium supplemented with 10% FCS. Then cells were collected, washed in complete medium, and added to matrigel coated wells in triplicate, at previously identified optimal seeding density, and incubated at 37 °C in complete medium for times ranging from 15 minutes to 4h, according to the cell line. After incubation, the wells were washed three times with serum-free medium and the remaining firmly attached cells were stained with crystal-violet 0.1%. Optical density was measured at 560 nm by Victor 3 (Perkin-Elmer) plate analyzer. Each experiment was repeated three times.

U87MG [4] = assay: Cell adhesion assay on matrigel coated wells; type: cell-based, human; conditions: Conc. 2.5 µM, percent of adhesion with respect to the control (100%)
FGF-1 = assay: Real-Time Quantitative PCR of pro-angiogenic genes in HT1080 cells; type: cell-based, human; conditions: 24 h, Conc 2.5 uM
Experimental: (§1) To evaluate the effect of heparanase inhibitors on the tumor transcription of genes encoding for proangiogenic factors, such as FGF1/2, VEGF, MMP-9, HSPE-1, the relative mRNA levels were analyzed by quantitative Real-Time Quantitative PCR. To perform the assay, HT1080 (human fibrosarcoma) cells were cultured in complete medium containing 10%FCS (fetal calf serum). Cells were plated in 24-well plates and treated at fixed concentration (i.e., highest non-toxic concentration) of test compounds. After 24 h, cells were detached, collected and total RNA extracted by RNeasy Mini Kit (QIAGEN). Following reverse transcription step, FGF1/2, VEGF, MMP-9, HSPE-1 mRNA levels, were quantified by qPCR using the advanced Universal SYBR Green Supermix (Bio Rad) and ABI PRISM 7900HT Thermal Cycler System (Perkin Elmer), according to the manufacturer's instructions. Appropriate no-RT and non-template controls were included in each 96-well PCR reaction, and dissociation analysis was performed at the end of each run to confirm the specificity of the reaction. Relative levels of RNA were calculated using the ddCt method. Standard curve and sample data were run in duplicate. In the Table a mean value is reported.

FGF-2 = assay: as above; type: cell-based, human; conditions: 24 h, Conc 2.5 uM
Experimental: as §1

MMP-9 = assay: as above; type: cell-based, human; conditions: 24 h, Conc 2.5 uM
Experimental: as §1

VEGF = assay: as above; type: cell-based, human; conditions: 24 h, Conc 2.5 uM
Experimental: as §1

[5] = test system: genes encoding for proangiogenic factors, such as FGF1/2, VEGF, MMP-9, HSPE-1; assay: Real-Time Quantitative PCR in HT1080 cells; type: cell-based, human; conditions: compared with SST0001 tested at 10 µM
Experimental: as §1

O=C(Nc1ccc(-c2nc3ccccc3[nH]2)cc1)c1ccc(C(=O)Nc2ccc(-c3nc4ccccc4[nH]3)cc2)cc1 [SST0856, 1,4-Benzenedicarboxamide, N1,N4-bis[4-(1H-benzimidazol-2-yl)phenyl]-]
inhibition at 2.5 µM [1]: < 50%
inhibition at 2.5 µM (U87MG [2]): < 50%
inhibition at 2.5 µM (U2OS): 50 to 90%
Adhesion Assay (%) HT1080 [3]: ∼ 98%
Adhesion Assay (%) U87MG (U87MG [4]): ∼ 99%
Gene Expression (% mRNA vs. control) FGF-1 (FGF-1): ∼ 53%
Gene Expression (% mRNA vs. control) FGF-2 (FGF-2): ∼ 76%
Gene Expression (% mRNA vs. control) MMP-9 (MMP-9): ∼ 55%
Gene Expression (% mRNA vs. control) VEGF (VEGF): ∼ 54%
potency in silencing gene expression [5]: in the same range of reference compound SST0001

O=C(O)c1ccc2c(c1)C(=O)N(c1ccc(NC(=O)c3cccc(C(=O)Nc4ccc(N5C(=O)c6ccc(C(=O)O)cc6C5=O)cc4Cl)c3)c(Cl)c1)C2=O [SST0859, 2-[4-[[3-[[4-(5-carboxy-1,3-dioxoisoindol-2-yl)-2-chlorophenyl]carbamoyl]benzoyl]amino]-3-chlorophenyl]-1,3-dioxoisoindole-5-carboxylic acid]
inhibition at 2.5 µM [1]: < 50%
inhibition at 2.5 µM (U87MG [2]): < 50%
inhibition at 2.5 µM (U2OS): 50 to 90%
Adhesion Assay (%) HT1080 [3]: ∼ 95%
Adhesion Assay (%) U87MG (U87MG [4]): ∼ 100%
Gene Expression (% mRNA vs. control) FGF-1 (FGF-1): ∼ 67%
Gene Expression (% mRNA vs. control) FGF-2 (FGF-2): ∼ 73%
Gene Expression (% mRNA vs. control) MMP-9 (MMP-9): ∼ 40%
Gene Expression (% mRNA vs. control) VEGF (VEGF): ∼ 61%
potency in silencing gene expression [5]: in the same range of reference compound SST0001
